In patent US9765034B2, “5-halogenopyrazole biphenylcarboxamides” (BAYER CROPSCIENCE AG, priority 2012, dated 2017):

Legend:
Pyrenophora teres = test: In vivo preventive test on Pyrenophora teres (net blotch on barley); settings: barley plants, preventive spray, 500 ppm, grading 14 days after contamination
Protocol: Example: In Vivo Preventive Test on Pyrenophora teres (Net Blotch on Barley) […] Barley plants (“Plaisant” variety), sown in starter cups on a 50/50 peat soil-pozzolana substrate and grown at 22° C., are treated at the 1-leaf stage (10 cm height) by spraying with the active ingredient prepared as described above. Plants, used as controls, are treated with the mixture of acetone/tween/DMSO/water not containing the active material. After 24 hours, the plants are contaminated by spraying the leaves with an aqueous suspension of Pyrenophora teres spores (12 000 spores per ml). The spores are collected from a 12-day-old culture. […] Grading (% of efficacy) is carried out 14 days after the contamination, in comparison with the control plants. Under these conditions, good (at least 70%) or total protection is observed at a dose of 500 ppm with the following compounds: […]

Botrytis cinerea = test: In vivo preventive test on Botrytis cinerea (grey mould); settings: gherkin plants, preventive spray, 500 ppm, grading 4 to 5 days after contamination
Protocol: Example: In Vivo Preventive Test on Botrytis cinerea (Grey Mould) […] Gherkin plants (“Vert petit de Paris” variety), sown in starter cups on a 50/50 peat soil-pozzolana substrate and grown at 24° C., are treated at the Z11 cotyledon stage by spraying with the active ingredient prepared as described above. Plants, used as controls, are treated with the mixture of acetone/tween/DMSO/water not containing the active material. After 24 hours, the plants are contaminated by spraying the cotyledons with an aqueous suspension of cryopreserved Botrytis cinerea spores (50 000 spores per ml). The spores are suspended in a nutrient solution composed of 10 g/L of PDB, 50 g/L of D-Fructose, 2 g/L of NH4NO3 and 1 g/L of KH2PO4. […] Grading (% of efficacy) is carried out 4 to 5 days after the contamination, in comparison with the control plants. Under these conditions, good (at least 70%) or total protection is observed at a dose of 500 ppm with the following compounds: […]

Sphaerotheca fuliginea = test: In vivo preventive test on Sphaerotheca fuliginea (powdery mildew on cucurbits); settings: gherkin plants, preventive spray, 500 ppm, grading 12 days after contamination
Protocol: Example: In Vivo Preventive Test on Sphaerotheca fuliginea (Powdery Mildew on Cucurbits) […] Gherkin plants (“Vert petit de Paris” variety), sown in starter cups on a 50/50 peat soil-pozzolana substrate and grown at 24° C., are treated at the Z11 cotyledon stage by spraying with the active ingredient prepared as described above. Plants, used as controls, are treated with the mixture of acetone/tween/DMSO/water not containing the active material. After 24 hours, the plants are contaminated by spraying the cotyledons with an aqueous suspension of Sphaerotheca fuliginea spores (100 000 spores per ml). The spores are collected from infected plants. […] Grading (% of efficacy) is carried out 12 days after the contamination, in comparison with the control plants. Under these conditions, good (at least 70%) or total protection is observed at a dose of 500 ppm with the following compounds: […]

Uromyces appendiculatus = test: In vivo preventive test on Uromyces appendiculatus (bean rust); settings: bean plants, preventive spray, 500 ppm, grading 11 days after contamination
Protocol: Example: In Vivo Preventive Test on Uromyces appendiculatus (Bean Rust) […] Bean plants (“Saxa” variety), sown in starter cups on a 50/50 peat soil-pozzolana substrate and grown at 24° C., are treated at the 2-leaf stage (9 cm height) by spraying with the active ingredient prepared as described above. Plants, used as controls, are treated with the mixture of acetone/tween/DMSO/water not containing the active material. After 24 hours, the plants are contaminated by spraying the leaves with an aqueous suspension of Uromyces appendiculatus spores (150 000 spores per ml). […] Grading (% of efficacy) is carried out 11 days after the contamination, in comparison with the control plants. Under these conditions, good (at least 70%) or total protection is observed at a dose of 500 ppm with the following compounds: […]

Puccinia recondita = test: In vivo preventive test on Puccinia recondita (brown rust on wheat); settings: wheat plants, preventive spray, 500 ppm, grading 12 days after contamination
Protocol: Example: In Vivo Preventive Test on Puccinia recondita (Brown Rust on Wheat) […] Wheat plants (“Scipion” variety), sown in starter cups on a 50/50 peat soil-pozzolana substrate and grown at 22° C., are treated at the 1-leaf stage (10 cm height) by spraying with the active ingredient prepared as described above. Plants, used as controls, are treated with the mixture of acetone/tween/DMSO/water not containing the active material. After 24 hours, the plants are contaminated by spraying the leaves with an aqueous suspension of Puccinia […] spores (100 000 spores per ml). […] Grading (% of efficacy) is carried out 12 days after the contamination, in comparison with the control plants. Under these conditions, good (at least 70%) or total protection is observed at a dose of 500 ppm with the following compounds: […]

Alternaria brassicae = test: In vivo preventive test on Alternaria brassicae (leaf spot on radish); settings: radish plants, preventive spray, 500 ppm, grading 6 days after contamination
Protocol: Example: In Vivo Preventive Test on Alternaria brassicae (Leaf Spot on Radish) […] Radish plants (“Pernod Clair” variety), sown in starter cups on a 50/50 peat soil-pozzolana substrate and grown at 17° C., are treated at the cotyledon stage by spraying with the active ingredient prepared as described above. Plants, used as controls, are treated with the mixture of acetone/tween/DMSO/water not containing the active material. After 24 hours, the plants are contaminated by spraying the cotyledons with an aqueous suspension of Alternaria brassicae spores (50 000 spores per ml). The spores are collected from a 15-day-old culture. […] Grading (% of efficacy) is carried out 6 days after the contamination, in comparison with the control plants. Under these conditions, good (at least 70%) or total protection is observed at a dose of 500 ppm with the following compounds: […]

[1] = logP by HPLC on reversed phase columns (EEC directive 79/831 Annex V.A8); settings: method [a]: LC-MS at pH 2.7, 0.1% formic acid in water / acetonitrile gradient 10% to 95%
Septoria tritici = test: In vivo preventive test on Septoria tritici (leaf spot on wheat); settings: wheat plants, preventive spray, 500 ppm, grading 24 days after contamination
Protocol: Example: In Vivo Preventive Test on Septoria tritici (Leaf Spot on Wheat) […] Wheat plants (“Scipion” variety), sown in starter cups on a 50/50 peat soil-pozzolana substrate and grown at 22° C., are treated at the 1-leaf stage (10 cm height) by spraying with the active ingredient prepared as described above. Plants, used as controls, are treated with the mixture of acetone/tween/DMSO/water not containing the active material. After 24 hours, the plants are contaminated by spraying the leaves with an aqueous suspension of cryopreserved Septoria tritici spores (500 000 spores per ml). […] Grading (% of efficacy) is carried out 24 days after the contamination, in comparison with the control plants. Under these conditions, good (at least 70%) or total protection is observed at a dose of 500 ppm with the following compounds: […]

SMILES | Eff. % (Pyrenophora teres) [%] | Eff. % (Botrytis cinerea) [%] | Eff. % (Sphaerotheca fuliginea) [%] | Eff. % (Uromyces appendiculatus) [%] | Eff. % (Puccinia recondita) [%] | Eff. % (Alternaria brassicae) [%] | logP [1] | Eff. % (Septoria tritici) [%]
CCON=Cc1ccc(-c2ccccc2NC(=O)c2c(C(F)F)nn(C)c2Cl)c(F)c1 [Example 37] | 100 | 100 | 100 | 97 | 97 | 88 | 3.65[a] | 
CCON=C(C)c1ccc(-c2ccccc2NC(=O)c2c(C(F)F)nn(C)c2Cl)cc1 [Example 34] | 80 |  |  | 100 | 89 |  | 4.49[a] | 
CC(=NOC(C)C)c1ccc(-c2ccccc2NC(=O)c2c(C(F)F)nn(C)c2Cl)cc1 [Example 1] |  |  | 100 | 100 | 98 |  | 5.03[a] | 75
CCON=C(C)c1ccc(-c2ccccc2NC(=O)c2c(C(F)F)nn(C)c2Cl)cc1 [Example 2] |  |  | 100 | 100 | 98 |  | 4.58[a] | 
CON=Cc1ccc(-c2ccccc2NC(=O)c2c(C(F)F)nn(C)c2Cl)cc1F [Example 33] | 96 | 95 | 100 | 99 | 100 | 88 | 3.75[a] | 
CCON=Cc1ccc(-c2ccccc2NC(=O)c2c(C(F)F)nn(C)c2Cl)cc1C(F)(F)F [Example 26] | 90 |  | 100 | 100 | 97 |  | 4.65[a] | 
C#CCON=C(C)c1ccc(-c2cccc(NC(=O)c3c(C(F)F)nn(C)c3Cl)c2)cc1 [Example 35] |  |  |  | 98 |  |  | 4.01[a] | 75
CCON=C(C)c1cccc(-c2cccc(NC(=O)c3c(C(F)F)nn(C)c3F)c2)c1 [Example 44] | 79 | 80 |  | 100 | 94 | 100 | 4.29[a] | 
CCON=C(C)c1ccc(-c2ccccc2NC(=O)c2c(C(F)F)nn(C)c2F)cc1 [Example 16] | 79 | 80 |  | 100 | 94 | 100 | 4.29[a] | 
CON=C(C)c1cccc(-c2cccc(NC(=O)c3c(C(F)F)nn(C)c3F)c2)c1 [Example 42] | 70 |  |  | 97 | 89 |  | 3.85[a] | 
CON=Cc1c(F)cc(-c2ccccc2NC(=O)c2c(C(F)F)nn(C)c2Cl)cc1F [Example 23] | 97 |  | 100 | 100 | 98 | 97 | 3.61[a] | 97
CCON=Cc1ccc(-c2ccccc2NC(=O)c2c(C(F)F)nn(C)c2Cl)c(Cl)c1 [Example 36] | 90 | 95 | 100 | 94 | 97 | 81 | 4.49[a] | 
CON=Cc1ccc(-c2ccccc2NC(=O)c2c(C(F)F)nn(C)c2Cl)cc1Cl [Example 38] | 96 |  | 100 | 100 | 97 | 94 | 4.19[a] | 
CON=Cc1ccc(-c2ccccc2NC(=O)c2c(C(F)F)nn(C)c2Cl)c(Cl)c1 [Example 10] |  |  | 100 | 100 | 97 |  | 4.05[a] | 
CON=C(C)c1cccc(-c2cccc(NC(=O)c3c(C(F)F)nn(C)c3Cl)c2)c1 [Example 45] | 80 |  |  | 100 | 94 |  | 4.04[a] | 
CCON=C(C)c1ccc(-c2ccccc2NC(=O)c2c(C(F)F)nn(C)c2F)cc1 [Example 11] | 96 |  | 100 | 100 | 94 | 97 | 4.24[a] | 
CCON=Cc1ccc(-c2cc(F)ccc2NC(=O)c2c(C(F)F)nn(C)c2Cl)cc1 [Example 19] | 80 | 70 | 100 | 100 | 97 | 88 | 4.11[a] | 
CCON=Cc1c(F)cc(-c2ccccc2NC(=O)c2c(C(F)F)nn(C)c2Cl)cc1F [Example 14] | 100 | 70 | 100 | 100 | 100 | 100 | 4.04[a] | 
CON=Cc1ccc(-c2c(F)cccc2NC(=O)c2c(C(F)F)nn(C)c2Cl)cc1 [Example 28] | 93 |  | 100 | 100 | 89 | 92 | 3.76[a] | 92
CCON=C(C)c1cccc(-c2cccc(NC(=O)c3c(C(F)F)nn(C)c3Cl)c2)c1 [Example 43] | 80 |  |  | 100 | 89 |  | 4.49[a] | 
CCON=Cc1ccc(-c2ccccc2NC(=O)c2c(C(F)F)nn(C)c2Cl)cc1Cl [Example 17] | 96 |  | 100 | 100 | 97 | 98 | 4.64[a] | 
